How the values were obtained:
[1] = test system: MDA-MB-453 (HER2 positive breast cancer cells); test: MTT cell viability assay in MDA-MB-453 cells; format: cell-based, human; conditions: for viability at 1 µM / viability at 10 µM / viability at 25 µM: Homo sapiens, read-out: Cell viability (%) ± SD; for viability at 1 µM: MDA-MB-453, 1 µM; for viability at 10 µM: MDA-MB-453, 10 µM; for viability at 25 µM: MDA-MB-453, 25 µM; for IC50 value against MDA-MB-453 cells (in words): tested at 1 µM, 10 µM and 25 µM
Procedure: MDA-MB-231 represents a specific subtype known as triple-negative breast cancer (TNBC). The investigation study was extended with active six hit compounds (9a, 9d, 9h, 10d, 10f, and 11g) in two other different cancer cell lines (MCF-7 and MDA-MB-453), each representing a separate class of breast cancers (MCF-7: hormone receptor/HR-positive; MDA-MB-453: human epidermal growth factor 2 receptor/HER2 positive). […] We also included normal mammary epithelial MCF-10A cells in our experiments to confirm if the growth-inhibitory activities of the selected compounds are truly cancer cell-specific. The activity data from MCF-7 and MDA-MB-453 cell lines (tested at 1 µM, 10 µM and 25 µM) and activity data from MCF-10A cell line (tested at 25 µM, 50 µM and 100 µM) are summarized in Table 3. To evaluate cell viability, the MTT assay was conducted following standard procedures. After 72 h of cell incubation with or without each compound, cell viability was assessed using MTT (3-(4,5-dimethylthiazol-2-yl)-2,5-diphenyltetrazolium bromide), which is a colorimetric method for determining the number of viable cells in various assays including proliferation, cytotoxicity, or chemosensitivity. The MTT reagent was added to the cells after removal of the medium and incubated for 3 h at 37 °C in the CO2 incubator. The formazan product, which is […] in the tissue culture medium, was dissolved in DMSO, and the absorbance of the formazan product was directly measured at 595 nm using a multimode plate reader without additional processing. The absorbance values are directly proportional to the number of viable cells in culture. The percentage of viable cells in each group was determined relative to the untreated control cells.

[2] = test system: MCF-7 (hormone receptor/HR-positive breast cancer cells); test: MTT cell viability assay in MCF-7 cells; format: cell-based; conditions: Homo sapiens, MCF7, read-out: Cell viability (%) ± SD; for viability at 1 µM: MCF-7, 1 µM; for viability at 10 µM: MCF-7, 10 µM; for viability at 25 µM: MCF-7, 25 µM
Procedure: MDA-MB-231 represents a specific subtype known as triple-negative breast cancer (TNBC). The investigation study was extended with active six hit compounds (9a, 9d, 9h, 10d, 10f, and 11g) in two other different cancer cell lines (MCF-7 and MDA-MB-453), each representing a separate class of breast cancers (MCF-7: hormone receptor/HR-positive; MDA-MB-453: human epidermal growth factor 2 receptor/HER2 positive).
We also included normal mammary epithelial MCF-10A cells in our experiments to confirm if the growth-inhibitory activities of the selected compounds are truly cancer cell-specific. The activity data from MCF-7 and MDA-MB-453 cell lines (tested at 1 µM, 10 µM and 25 µM) and activity data from MCF-10A cell line (tested at 25 µM, 50 µM and 100 µM) are summarized in Table 3.
To evaluate cell viability, the MTT assay was conducted following standard procedures. After 72 h of cell incubation with or without each compound, cell viability was assessed using MTT (3-(4,5-dimethylthiazol-2-yl)-2,5-diphenyltetrazolium bromide), which is a colorimetric method for determining the number of viable cells in various assays including proliferation, cytotoxicity, or chemosensitivity. The MTT reagent was added to the cells after removal of the medium and incubated for 3 h at 37 °C in the CO2 incubator. The formazan product, which is […] in the tissue culture medium, was dissolved in DMSO, and the absorbance of the formazan product was directly measured at 595 nm using a multimode plate reader without additional processing. The absorbance values are directly proportional to the number of viable cells in culture. The percentage of viable cells in each group was determined relative to the untreated control cells.

[3] = test system: MDA-MB-231 (human breast cancer) cell line; test: MTT cell viability assay in MDA-MB-231 cells; format: cell-based; conditions: for inhibition at 25 µM: MDA-MB-231, 25 μM concentration; for IC50: MDA-MB-231, MTT, concentrations 10, 25 and 50 µM, n = 3, read-out: IC50 against MDA-MB-231 breast cancer cell line; for IC50 / viability at 10 µM / viability at 25 µM / viability at 50 µM: 72 h; for viability at 10 µM / viability at 25 µM / viability at 50 µM: Table 2, MDA-MB-231, MTT, read-out: Cell viability (%) ± SD
Procedure: Thus, we screened the synthesized library of pyrazolo[1,5-a]pyrimidin-7-ols 4a–4i. Anticancer activity (in terms of growth inhibition/decreased cell viability with respect to control) of all synthesized compounds (n = 9) was investigated by MTT assay in MDA-MB-231 (human breast cancer) cell line at different concentrations for 72 h. […] Thus, it was aimed to investigate the anticancer activity of a synthesized library of triazole-linked glycohybrids of pyrazolo[1,5-a]pyrimidines. […] The MTT assay was used to investigate the anticancer activity of twenty-seven synthesized compounds on the growth inhibition and decrement in cell viability of MDA-MB-231 (human breast cancer). Different concentrations were tested for 72 h, and the results were compared to a control. MDA-MB-231, a human breast cancer cell line, was cultured under standard conditions. Specifically, they were grown in Dulbecco’s Modified Eagle’s Medium (DMEM) supplemented with 10% heat-inactivated Fetal Bovine Serum (FBS) and 1% penicillin–streptomycin. The cells were maintained as a monolayer in a 100 mm culture plate and were used for experiments before reaching their 8th passage. Subculturing was performed every third-day using trypsin EDTA treatment. All incubation and maintenance procedures were carried out in a humidified CO2 incubator at 37 °C. To evaluate cell viability, the MTT assay was conducted following standard procedures. After 72 h of cell incubation with or without each compound, cell viability was assessed using MTT (3-(4,5-dimethylthiazol-2-yl)-2,5-diphenyltetrazolium bromide), which is a colorimetric method for determining the number of viable cells in various assays including proliferation, cytotoxicity, or chemosensitivity. The MTT reagent was added to the cells after removal of the medium and incubated for 3 h at 37 °C in the CO2 incubator. The formazan product, which is […] in the tissue culture medium, was dissolved in DMSO, and the absorbance of the formazan product was directly measured at 595 nm using a multimode plate reader without additional processing. The absorbance values are directly proportional to the number of viable cells in culture. The percentage of viable cells in each group was determined relative to the untreated control cells.

SMILES | viability at 1 µM [1] | viability at 10 µM [1] | viability at 25 µM [1] | IC50 value against MDA-MB-453 cells (in words) [1] | viability at 1 µM [2] | viability at 10 µM [2] | viability at 25 µM [2] | inhibition at 25 µM [3] | IC50 [3] | viability at 10 µM [3] | viability at 25 µM [3] | viability at 50 µM [3]
CC(=O)OC[C@H]1O[C@@H](n2cc(COc3cc(-c4ccc(Cl)cc4)nc4ccnn34)nn2)[C@H](OC(C)=O)[C@@H](OC(C)=O)[C@H]1OC(C)=O [Compound 10d, (2R,3S,4S,5R,6R)-2-(acetoxymethyl)-6-(4-(((5-(4-chlorophenyl)pyrazolo[1,5-a]pyrimidin-7-yl)oxy)methyl)-1H-1,2,3-triazol-1-yl)tetrahydro-2H-pyran-3,4,5-triyl triacetate] | 88.8 ± 5.2% | 78.3 ± 4.7% | 69.6 ± 5.3% | did not reach up to IC50 value | 66 ± 4.7% | 34 ± 2.5% | 20 ± 2.9% | ~50% | 29.1 µM | 56.7 ± 8.23% | 53.3 ± 6.32% | 41 ± 4.91%
CC(=O)OC[C@H]1O[C@H](n2cc(COc3cc(-c4ccc(C(C)C)cc4)nc4ccnn34)nn2)[C@@H](OC(C)=O)[C@@H](OC(C)=O)[C@@H]1OC(C)=O [Compound 11g, (2R,3R,4S,5S,6S)-2-(acetoxymethyl)-6-(4-(((5-(4-isopropylphenyl)pyrazolo[1,5-a]pyrimidin-7-yl)oxy)methyl)-1H-1,2,3-triazol-1-yl)tetrahydro-2H-pyran-3,4,5-triyl triacetate] | 95.4 ± 4.8% | 76.4 ± 5.4% | 96.1 ± 35.7% | did not reach up to IC50 value | 70.8 ± 4.2% | 68.2 ± 3.8% | 49.1 ± 3.5% | ~50% | 38.8 µM | 66.7 ± 8.21% | 54.3 ± 6.12% | 45.3 ± 4.11%
CC(=O)OC[C@H]1O[C@@H](n2cc(COc3cc(-c4ccc(C(F)(F)F)cc4)nc4ccnn34)nn2)[C@H](OC(C)=O)[C@@H](OC(C)=O)[C@H]1OC(C)=O [Compound 10f, (2R,3S,4S,5R,6R)-2-(acetoxymethyl)-6-(4-(((5-(4-(trifluoromethyl)phenyl)pyrazolo[1,5-a]pyrimidin-7-yl)oxy)methyl)-1H-1,2,3-triazol-1-yl)tetrahydro-2H-pyran-3,4,5-triyl triacetate] | 92.5 ± 4.6% | 80.9 ± 1.2% | 66.8 ± 1.7% | did not reach up to IC50 value | 51.3 ± 3.1% | 28.4 ± 0.9% | 21.1 ± 4.4% | ~50% | 31.2 µM | 69.4 ± 5.36% | 45.1 ± 3.32% | 41.2 ± 1.26%
CC(=O)OC[C@H]1O[C@@H](n2cc(COc3cc(-c4ccc(Cl)cc4)nc4ccnn34)nn2)[C@H](OC(C)=O)[C@@H](OC(C)=O)[C@@H]1OC(C)=O [Compound 9d, (2R,3R,4S,5R,6R)-2-(acetoxymethyl)-6-(4-(((5-(4-chlorophenyl)pyrazolo[1,5-a]pyrimidin-7-yl)oxy)methyl)-1H-1,2,3-triazol-1-yl)tetrahydro-2H-pyran-3,4,5-triyl triacetate] | 80.8 ± 3.2% | 82.2 ± 11.5% | 65.3 ± 5.8% | did not reach up to IC50 value | 100 ± 4.5% | 69.8 ± 1.8% | 62.8 ± 3% | ~50% | 43.1 µM | 75.6 ± 9.76% | 61 ± 8.47% | 58.6 ± 5.61%
CC(=O)OC[C@H]1O[C@@H](n2cc(COc3cc(-c4ccc5ccccc5c4)nc4ccnn34)nn2)[C@H](OC(C)=O)[C@@H](OC(C)=O)[C@@H]1OC(C)=O [Compound 9h, (2R,3R,4S,5R,6R)-2-(acetoxymethyl)-6-(4-(((5-(naphthalen-2-yl)pyrazolo[1,5-a]pyrimidin-7-yl)oxy)methyl)-1H-1,2,3-triazol-1-yl)tetrahydro-2H-pyran-3,4,5-triyl triacetate] | 105 ± 8.1% | 74.8 ± 1.5% | 66.4 ± 3.2% | did not reach up to IC50 value | 79.2 ± 2.6% | 58.7 ± 2.4% | 42.3 ± 7.6% | ~50% | 35.9 µM | 96.6 ± 3.36% | 55.2 ± 7.06% | 42.8 ± 5.04%
CC(=O)OC[C@H]1O[C@@H](n2cc(COc3cc(-c4ccc(C)cc4)nc4ccnn34)nn2)[C@H](OC(C)=O)[C@@H](OC(C)=O)[C@@H]1OC(C)=O [Compound 9a, (2R,3R,4S,5R,6R)-2-(acetoxymethyl)-6-(4-(((5-(p-tolyl)pyrazolo[1,5-a]pyrimidin-7-yl)oxy)methyl)-1H-1,2,3-triazol-1-yl)tetrahydro-2H-pyran-3,4,5-triyl triacetate] | 80.6 ± 8% | 86.4 ± 5.4% | 78.1 ± 5.7% | did not reach up to IC50 value | 68.7 ± 1.18% | 41.3 ± 3.6% | 21.7 ± 4% | ~50% | 29.6 µM | 70.1 ± 9.53% | 51 ± 9.19% | 35.3 ± 4.29%

— paper PMC10766964, “Copper-catalyzed synthesis of pyrazolo[1,5-a]pyrimidine based triazole-linked glycohybrids: mechanistic insights and bio-applications” (Scientific Reports, 2024)
